Reference: paper PMC6930555, “Design, Synthesis, and Structural Characterization of Novel Diazaphenothiazines with 1,2,3-Triazole Substituents as Promising Antiproliferative Agents” (Molecules, 2019)
Read-outs that look alike come from different tables or passages of the source.

Key:
glioblastoma SNB-19 = assay: WST-1 cell proliferation assay, SNB-19; format: cell-based, human; settings: SNB-19, WST-1, 72 h, read-out: Anticancer Activity IC50 SNB-19
Experimental: (§1) Encouraged by our previous promising results in the field of antiproliferative activity of dipyridothiazines as well as by the good anticancer activity of the 1,2,3-triazoles, we decided to combine the biological potentials of dipyridothiazines and triazole moieties, hoping to obtain compounds with better activity. The antiproliferative activity of all 20 new 10-substituted 1,2,3-triazole derivatives of dipyridothiazines was tested in vitro against cancer cell lines: glioblastoma SNB-19, colorectal carcinoma Caco-2, lung cancer A549, and breast cancer MDA-MB231 using the WST-1 assay. Normal human fibroblasts NHDF were used as a control.
(§2) All dipyridothiazines with 1,2,3-triazole substituents (1–4)b–f were evaluated for their anticancer activity using four cultured cell lines: SNB-19 (human glioblastoma, DSMZ—German Collection of Microorganisms and Cell Cultures, Braunschweig, Germany), Caco-2 (human colon adenocarcinoma, DSMZ—German Collection of Microorganisms and Cell Cultures, Braunschweig, Germany), A549 (human lung carcinoma, ATCC, Manassas, VA, USA) and MDA-MB231 (human breast adenocarcinoma, ATCC, Manassas, VA, USA), and NHDF (human dermal fibroblast cell line, ATCC, Manassas, VA, USA. The cultured cells were kept at 37 °C and 5% CO2. The cells were seeded (1 × 10^4 cells/well/100 µL DMEM supplemented with 10% FCS and streptomycin and penicillin) using 96-well plates (Corning). The cells were counted in a hemocytometer (Burker’s chamber) using a phase contrast Olympus IX50 microscope equipped with Sony SSC-DC58 AP camera and Olympus DP10 digital camera.
(§3) Antiproliferative effect of the obtained compounds on the cancer cells was determined using the cell proliferation reagent WST-1 assay (Roche Diagnostics, Mannheim, Germany). This assay is based on the viable cell’s ability to cleave the bright red-colored tetrazolium salt (2-(4-iodophenyl)-3-(4-nitrophenyl)-5-(2,4-disulfophenyl)-2H-tetrazolium, monosodium salt) to dark red soluble formazan by cellular enzymes. An increase in the amount of formazan dye formed correlates to the number of metabolically active cells in the culture. The formazan dye produced by metabolically active cells is quantified by a scanning ELISA reader by measuring the absorbance of the dye solution at appropriate wavelengths. The examined cells were exposed to the tested compounds for 72 h at various concentrations between 0.1 μg/mL and 100 μg/mL (prepared initially at concentration of 1 mg/mL in DMSO). The cells were incubated with WST-1 (10 μL) for 1 h and the absorbance of the samples against a background control was measured at 450 nm using a microplate reader with a reference wavelength at 600 nm. The results are expressed as means of at least two independent experiments performed in triplicate.

lung cancer A549 = assay: WST-1 cell proliferation assay, A549; format: cell-based, human; settings: A549, WST-1, 72 h, read-out: Anticancer Activity IC50 A549
Experimental: as §1, §2, §3

[1] = system: normal human fibroblasts NHDF; assay: WST-1 cytotoxicity assay, normal fibroblasts NHDF; format: cell-based; settings: normal human fibroblasts NHDF, WST-1, 72 h
Experimental: as §1, §2, §3

breast cancer MDA-MB231 = assay: WST-1 cell proliferation assay, MDA-MB231; format: cell-based, human; settings: MDA-MB231, WST-1, 72 h, read-out: Anticancer Activity IC50 MDA-MB231
Experimental: as §1, §2, §3

[2] = system: colorectal carcinoma Caco-2; assay: WST-1 cell proliferation assay, Caco-2; format: cell-based; settings: Homo sapiens; Caco-2, WST-1, 72 h; read-out: Anticancer Activity IC50 Caco-2
Experimental: The antiproliferative activity of all 20 new 10-substituted 1,2,3-triazole derivatives of dipyridothiazines was tested in vitro against cancer cell lines: glioblastoma SNB-19, colorectal carcinoma Caco-2, lung cancer A549, and breast cancer MDA-MB231 using the WST-1 assay. Normal human fibroblasts NHDF were used as a control.
as §2, §3

## c1ccc(SCn2cc(CN3c4ccncc4Sc4ncccc43)nn2)cc1 [4f, 10-[(1-Phenylthiomethyl-1H-1,2,3-triazolo-4-ylo)methyl]-3,6-diazaphenothiazine]
Glioblastoma SNB-19; Homo sapiens
  IC50: 44.8 µM
Lung cancer A549; Homo sapiens
  IC50: > 100 µM
[1]
  IC50: > 100 µM
Breast cancer MDA-MB231; Homo sapiens, MDA-MB-231
  IC50: 44.3 µM
[2]
  IC50: 67.5 µM

## N#Cc1ccc(Cn2cc(CN3c4ccncc4Sc4ncccc43)nn2)cc1 [4e, 10-[(1-(4-Cyanobenzyl)-1H-1,2,3-triazol-4-yl)methyl]-3,6-diazaphenothiazine]
Glioblastoma SNB-19; Homo sapiens
  IC50: 53.6 µM
Lung cancer A549; Homo sapiens
  IC50: 42.7 µM
[1]
  IC50: > 100 µM
Breast cancer MDA-MB231; Homo sapiens, MDA-MB-231
  IC50: 38.8 µM
[2]
  IC50: 74.3 µM

## Fc1ccc(Cn2cc(CN3c4cnccc4Sc4cccnc43)nn2)cc1 [2c, 10-[(1-(4-Fluorobenzyl)-1H-1,2,3-triazol-4-yl)methyl]-1,8-diazaphenothiazine]
Glioblastoma SNB-19; Homo sapiens
  IC50: 55.2 µM
Lung cancer A549; Homo sapiens
  IC50: 60.2 µM
[1]
  IC50: > 100 µM
Breast cancer MDA-MB231; Homo sapiens, MDA-MB-231
  IC50: 9.21 µM
[2]
  IC50: 43.6 µM

## Fc1ccc(Cn2cc(CN3c4ccncc4Sc4ccncc43)nn2)cc1 [3c, 10-[(1-(4-Fluorobenzyl)-1H-1,2,3-triazol-4-yl)methyl]-2,7-diazaphenothiazine]
Glioblastoma SNB-19; Homo sapiens
  IC50: 57.9 µM
Lung cancer A549; Homo sapiens
  IC50: 27.2 µM
[1]
  IC50: 70.6 µM
Breast cancer MDA-MB231; Homo sapiens, MDA-MB-231
  IC50: 25.7 µM
[2]
  IC50: 29.9 µM

## Clc1ccc(Cn2cc(CN3c4ccncc4Sc4ncccc43)nn2)cc1 [4d, 10-[(1-(4-Chlorobenzyl)-1H-1,2,3-triazol-4-yl)methyl]-3,6-diazaphenothiazine]
Glioblastoma SNB-19; Homo sapiens
  IC50: 14.9 µM
Lung cancer A549; Homo sapiens
  IC50: 54 µM
[1]
  IC50: > 100 µM
Breast cancer MDA-MB231; Homo sapiens, MDA-MB-231
  IC50: 13.4 µM
[2]
  IC50: 42.1 µM

## Clc1ccc(Cn2cc(CN3c4cnccc4Sc4cccnc43)nn2)cc1 [2d, 10-[(1-(4-Chlorobenzyl)-1H-1,2,3-triazol-4-yl)methyl]-1,8-diazaphenothiazine]
Glioblastoma SNB-19; Homo sapiens
  IC50: 59.9 µM
Lung cancer A549; Homo sapiens
  IC50: 1.82 µM
[1]
  IC50: 43 µM
Breast cancer MDA-MB231; Homo sapiens, MDA-MB-231
  IC50: 4.71 µM
[2]
  IC50: 11.4 µM

## c1ccc(SCn2cc(CN3c4cnccc4Sc4cccnc43)nn2)cc1 [2f, 10-[(1-Phenylthiomethyl-1H-1,2,3-triazolo-4-ylo)methyl]-1,8-diazaphenothiazine]
Glioblastoma SNB-19; Homo sapiens
  IC50: 56.3 µM
Lung cancer A549; Homo sapiens
  IC50: 46.8 µM
[1]
  IC50: > 100 µM
Breast cancer MDA-MB231; Homo sapiens, MDA-MB-231
  IC50: 12 µM
[2]
  IC50: 32.5 µM

## N#Cc1ccc(Cn2cc(CN3c4cccnc4Sc4cccnc43)nn2)cc1 [1e, 10-[(1-(4-Cyanobenzyl)-1H-1,2,3-triazol-4-yl)methyl]-1,6-diazaphenothiazine]
Glioblastoma SNB-19; Homo sapiens
  IC50: 9.65 µM
Lung cancer A549; Homo sapiens
  IC50: 1.79 µM
[1]
  IC50: > 100 µM
Breast cancer MDA-MB231; Homo sapiens, MDA-MB-231
  IC50: 25.8 µM
[2]
  IC50: 79.7 µM

## N.N.[Cl][Pt][Cl] [Cisplatin, reference compound]
Glioblastoma SNB-19
  IC50: 3.73 µM
Lung cancer A549
  IC50: 0.6 µM
[1]
  IC50: 63.9 µM
Breast cancer MDA-MB231
  IC50: 3.13 µM

## c1ccc(Cn2cc(CN3c4cccnc4Sc4cccnc43)nn2)cc1 [1b, 10-[(1-Benzyl-1H-1,2,3-triazol-4-yl)-methyl]-1,6-diazaphenothiazine]
Glioblastoma SNB-19; Homo sapiens
  IC50: 69.2 µM
Lung cancer A549; Homo sapiens
  IC50: > 100 µM
[1]
  IC50: > 100 µM
Breast cancer MDA-MB231; Homo sapiens, MDA-MB-231
  IC50: 13.7 µM
[2]
  IC50: 19.9 ± 2.71 µM

## Clc1ccc(Cn2cc(CN3c4ccncc4Sc4ccncc43)nn2)cc1 [3d, 10-[(1-(4-Chlorobenzyl)-1H-1,2,3-triazol-4-yl)methyl]-2,7-diazaphenothiazine]
Glioblastoma SNB-19; Homo sapiens
  IC50: 31.3 µM
Lung cancer A549; Homo sapiens
  IC50: 17.9 µM
[1]
  IC50: > 100 µM
Breast cancer MDA-MB231; Homo sapiens, MDA-MB-231
  IC50: 4.26 µM
[2]
  IC50: 33.1 µM

## N#Cc1ccc(Cn2cc(CN3c4ccncc4Sc4ccncc43)nn2)cc1 [3e, 10-[(1-(4-Cyanobenzyl)-1H-1,2,3-triazol-4-yl)methyl]-2,7-diazaphenothiazine]
Glioblastoma SNB-19; Homo sapiens
  IC50: 26.8 µM
Lung cancer A549; Homo sapiens
  IC50: 30.1 µM
[1]
  IC50: 49.5 µM
Breast cancer MDA-MB231; Homo sapiens, MDA-MB-231
  IC50: 3.5 µM
[2]
  IC50: 10 µM

## c1ccc(Cn2cc(CN3c4ccncc4Sc4ncccc43)nn2)cc1 [4b, 10-[(1-Benzyl-1H-1,2,3-triazol-4-yl)-methyl]-3,6-diazaphenothiazine]
Glioblastoma SNB-19; Homo sapiens
  IC50: 20.8 µM
Lung cancer A549; Homo sapiens
  IC50: 60.6 µM
[1]
  IC50: > 100 µM
Breast cancer MDA-MB231; Homo sapiens, MDA-MB-231
  IC50: 7.87 µM
[2]
  IC50: 57.9 µM
